Measured values from ChEMBL document CHEMBL1201862, “PubChem BioAssay data set” (2004).
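Dose response: 5 concentrations. Exposure: 48 h. Format: 96-well plates. Endpoint: linear interpolation; highest concentration if not reached. At the GI50, growth is halved.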 The source made the active and inactive calls. Cut-off read from the data, not from the text of the source: active = GI50 up to about 1.1 µM and inactive = higher.

Legend:
Assay in all cases: NCI-60 cell line screen, 48 h
[1] = test system: CCRF-CEM
[2] = test system: SF-268
[3] = test system: SF-295
[4] = test system: LOX IMVI
[5] = test system: MOLT-4
[6] = test system: RPMI-8226
[7] = test system: HCT-116
[8] = test system: IGROV-1
[9] = test system: UO-31
[10] = test system: UACC-62
[11] = test system: SK-MEL-28
[12] = test system: K562
[13] = test system: SW-620
[14] = test system: OVCAR-4
[15] = test system: NCI-H460
[16] = test system: HOP-92
[17] = test system: MDA-N
[18] = test system: DU-145
[19] = test system: MCF7
[20] = test system: BT-549

Structure (SMILES)	GI50 [1]	GI50 [2]	GI50 [3]	GI50 [4]	GI50 [5]	GI50 [6]	GI50 [7]	GI50 [8]	GI50 [9]	GI50 [10]	GI50 [11]	GI50 [12]	GI50 [13]	GI50 [14]	GI50 [15]	GI50 [16]	GI50 [17]	GI50 [18]	GI50 [19]	GI50 [20]
CCOc1ccc(C(CN2CCOCC2)C(C)=O)cc1OC (stereo not given)	9.4 µM (inactive)	19.7 µM (inactive)	39.6 µM (inactive)	17 µM (inactive)	21.9 µM (inactive)	11.5 µM (inactive)	20.4 µM (inactive)	25.2 µM (inactive)	14.6 µM (inactive)	17.3 µM (inactive)	19.1 µM (inactive)	3.1 µM (inactive)	16.4 µM (inactive)	18.3 µM (inactive)	18.4 µM (inactive)	18.9 µM (inactive)				
O=C(c1cc2c(c3ccccc13)NCCN=C2C(F)(F)F)C(F)(F)F	17 µM (inactive)	24 µM (inactive)	16 µM (inactive)	13.7 µM (inactive)	7.11 µM (inactive)	6.95 µM (inactive)	26.7 µM (inactive)	29.6 µM (inactive)	51.9 µM (inactive)		18.9 µM (inactive)	7.16 µM (inactive)	35.2 µM (inactive)	38.7 µM (inactive)	15.5 µM (inactive)	21.9 µM (inactive)	21.4 µM (inactive)	41.4 µM (inactive)	19.2 µM (inactive)	
O=C(O)c1cccc(NC(C(=O)c2ccccc2)c2ccccc2)c1 (stereo not given)	> 100 µM (inactive)	> 100 µM (inactive)	> 100 µM (inactive)	> 100 µM (inactive)	> 100 µM (inactive)	> 100 µM (inactive)	> 100 µM (inactive)	> 100 µM (inactive)	> 100 µM (inactive)	> 100 µM (inactive)	> 100 µM (inactive)	> 100 µM (inactive)	> 100 µM (inactive)		> 100 µM (inactive)	34 µM (inactive)	> 100 µM (inactive)	> 100 µM (inactive)	> 100 µM (inactive)	
Cc1cccc(NC(=O)c2cc3cc(/N=N/c4ccccc4Cl)ccc3oc2=O)c1	14 µM (inactive)	23.3 µM (inactive)	40 µM (inactive)	10.4 µM (inactive)	22.8 µM (inactive)	19.9 µM (inactive)	23.7 µM (inactive)	32.1 µM (inactive)	13.3 µM (inactive)	16.3 µM (inactive)	35.4 µM (inactive)	61 µM (inactive)	54.1 µM (inactive)	29.4 µM (inactive)	27 µM (inactive)	33.3 µM (inactive)				
CC1=NN(C(=O)Cc2ccccc2)C(=O)/C1=C\c1ccccc1O	> 100 µM (inactive)	> 100 µM (inactive)	> 100 µM (inactive)	> 100 µM (inactive)	> 100 µM (inactive)	> 100 µM (inactive)	> 100 µM (inactive)	> 100 µM (inactive)	> 100 µM (inactive)	> 100 µM (inactive)	> 100 µM (inactive)	> 100 µM (inactive)	> 100 µM (inactive)	> 100 µM (inactive)	> 100 µM (inactive)	> 100 µM (inactive)				
CN1CCCc2nc3ccccc3n2C1	88.3 µM (inactive)	> 100 µM (inactive)	> 100 µM (inactive)	> 100 µM (inactive)	> 100 µM (inactive)	23.7 µM (inactive)	> 100 µM (inactive)	> 100 µM (inactive)	> 100 µM (inactive)	> 100 µM (inactive)	> 100 µM (inactive)	> 100 µM (inactive)	> 100 µM (inactive)	> 100 µM (inactive)	> 100 µM (inactive)	> 100 µM (inactive)				
O=C(COc1ccc(Cl)c(Cl)c1)N(Cc1ccccc1)Cc1ccc[n+](Cc2ccc(Cl)cc2S(=O)(=O)F)c1		> 100 µM (inactive)	> 100 µM (inactive)		21.4 µM (inactive)	13.3 µM (inactive)	> 100 µM (inactive)	40.6 µM (inactive)	> 100 µM (inactive)	62.1 µM (inactive)	26.8 µM (inactive)	53 µM (inactive)	54.2 µM (inactive)	> 100 µM (inactive)	> 100 µM (inactive)	50.8 µM (inactive)		> 100 µM (inactive)	46.3 µM (inactive)	
Cc1n[nH]/c(=N\S(=O)(=O)c2ccc(/N=N/c3c(O)c(C(=O)O)cc4ccccc34)cc2)s1	> 100 µM (inactive)	> 100 µM (inactive)	> 100 µM (inactive)		> 100 µM (inactive)	> 100 µM (inactive)	> 100 µM (inactive)	> 100 µM (inactive)	> 100 µM (inactive)	> 100 µM (inactive)	> 100 µM (inactive)	> 100 µM (inactive)	> 100 µM (inactive)	> 100 µM (inactive)	> 100 µM (inactive)	> 100 µM (inactive)	> 100 µM (inactive)	> 100 µM (inactive)	> 100 µM (inactive)	
N#C/C(=C\c1ccccc1Br)C(=O)c1ccccc1	6.95 µM (inactive)	> 46 µM (inactive)	31 µM (inactive)	11.8 µM (inactive)	12.2 µM (inactive)	9.86 µM (inactive)	2.81 µM (inactive)	> 10 µM (inactive)	> 38.5 µM (inactive)	29.5 µM (inactive)	> 42.3 µM (inactive)	0.55 µM (active)	2.04 µM (inactive)	7.14 µM (inactive)	> 92.9 µM (inactive)	> 100 µM (inactive)				
CC1=CC(C)C(C)N(CCNC(=O)Nc2ccccc2)c2ccccc21 (stereo not given)	20.7 µM (inactive)	27.5 µM (inactive)	10 µM (inactive)	6.81 µM (inactive)	20 µM (inactive)	14.6 µM (inactive)	13.9 µM (inactive)	28.2 µM (inactive)	27.2 µM (inactive)	13.6 µM (inactive)	28.6 µM (inactive)	17.1 µM (inactive)	26.5 µM (inactive)	27.4 µM (inactive)	19.8 µM (inactive)		22.5 µM (inactive)	32.7 µM (inactive)	17.4 µM (inactive)	
CCC(=O)C(C)C(=O)C(=O)C(=O)OC (stereo not given)	> 46.9 µM (inactive)	> 100 µM (inactive)	> 100 µM (inactive)	> 80.7 µM (inactive)	> 51.4 µM (inactive)	> 100 µM (inactive)	> 62.8 µM (inactive)	> 100 µM (inactive)	> 100 µM (inactive)	> 100 µM (inactive)	> 100 µM (inactive)	> 66.1 µM (inactive)	> 26.2 µM (inactive)	> 100 µM (inactive)	> 100 µM (inactive)	> 100 µM (inactive)				
CCCOc1ccc(/C(Cl)=C(\C=O)c2ccc(OC)c(OC)c2)cc1OCCC	3.59 µM (inactive)	3.73 µM (inactive)	13.7 µM (inactive)	10.5 µM (inactive)	2.31 µM (inactive)	2.7 µM (inactive)	2.64 µM (inactive)	27.9 µM (inactive)	17.6 µM (inactive)	3.52 µM (inactive)	7.59 µM (inactive)	6.1 µM (inactive)	5.13 µM (inactive)	7.03 µM (inactive)	7.1 µM (inactive)	18 µM (inactive)				
COC(=O)CCSC(=O)Nc1ccc(/N=N/c2ccccc2)cc1	50.1 µM (inactive)	> 100 µM (inactive)	47.9 µM (inactive)	40.5 µM (inactive)	27.2 µM (inactive)	49.1 µM (inactive)	59.3 µM (inactive)	56.9 µM (inactive)	51.3 µM (inactive)	34.4 µM (inactive)	> 100 µM (inactive)	45.8 µM (inactive)	> 100 µM (inactive)	30.4 µM (inactive)	31.6 µM (inactive)	95.7 µM (inactive)				
CC(C)(OCc1ccccc1)c1ccccc1P(c1ccccc1)c1ccccc1		83.8 µM (inactive)	44.8 µM (inactive)		17.2 µM (inactive)	4.04 µM (inactive)	40 µM (inactive)	50.1 µM (inactive)	87.7 µM (inactive)	47.5 µM (inactive)	42.2 µM (inactive)	45.3 µM (inactive)	82.2 µM (inactive)	31.3 µM (inactive)	49.7 µM (inactive)	35.2 µM (inactive)		82.6 µM (inactive)	40.4 µM (inactive)	28.8 µM (inactive)
Brc1ccc2ns[s+]c2c1	1.26 µM (inactive)	2.58 µM (inactive)	4.46 µM (inactive)	0.659 µM (active)	4.65 µM (inactive)	4.71 µM (inactive)	2.7 µM (inactive)	26.7 µM (inactive)	4.36 µM (inactive)	0.446 µM (active)	11.9 µM (inactive)	0.321 µM (active)	8.63 µM (inactive)	> 20.9 µM (inactive)	3.3 µM (inactive)	6.73 µM (inactive)				
C=C(C)[C@@H]1CC[C@]2(C(=O)OC)CC[C@]3(C)[C@H](CC[C@@H]4[C@@]5(C)CC[C@H](O)C(C)(C)[C@@H]5CC[C@]43C)[C@@H]12 [METHYL BETULINATE]	19.4 µM (inactive)	21.4 µM (inactive)	18.4 µM (inactive)	18.4 µM (inactive)	18.8 µM (inactive)		17.4 µM (inactive)	18.1 µM (inactive)	22.8 µM (inactive)		22.3 µM (inactive)	20.5 µM (inactive)	19.6 µM (inactive)		18.5 µM (inactive)	19.4 µM (inactive)	18.2 µM (inactive)	39.8 µM (inactive)	19.4 µM (inactive)	
